From US11104670B2, “4-pyrimidin-5-ylmethyl-morpholine derivatives and the use thereof as medicament” (Boehringer Ingelheim International GmbH, priority 2018, dated 2021)

What was measured:
Format in all cases: cell-based
Nav1.6 channel = Nav1.6 channel (Homo sapiens (Human), UniProt Q9UQD0); assay: Nav1.6 inhibition, IonWorks Quattro electrophysiology; settings: for inhibition at 1 µM / Normalized % inhibition at 5 μM / inhibition at 5 µM: normalized to vehicle (0%) and maximal inhibition control (100%)
Nav1.6 channel, sequence (Q9UQD0 whole entry): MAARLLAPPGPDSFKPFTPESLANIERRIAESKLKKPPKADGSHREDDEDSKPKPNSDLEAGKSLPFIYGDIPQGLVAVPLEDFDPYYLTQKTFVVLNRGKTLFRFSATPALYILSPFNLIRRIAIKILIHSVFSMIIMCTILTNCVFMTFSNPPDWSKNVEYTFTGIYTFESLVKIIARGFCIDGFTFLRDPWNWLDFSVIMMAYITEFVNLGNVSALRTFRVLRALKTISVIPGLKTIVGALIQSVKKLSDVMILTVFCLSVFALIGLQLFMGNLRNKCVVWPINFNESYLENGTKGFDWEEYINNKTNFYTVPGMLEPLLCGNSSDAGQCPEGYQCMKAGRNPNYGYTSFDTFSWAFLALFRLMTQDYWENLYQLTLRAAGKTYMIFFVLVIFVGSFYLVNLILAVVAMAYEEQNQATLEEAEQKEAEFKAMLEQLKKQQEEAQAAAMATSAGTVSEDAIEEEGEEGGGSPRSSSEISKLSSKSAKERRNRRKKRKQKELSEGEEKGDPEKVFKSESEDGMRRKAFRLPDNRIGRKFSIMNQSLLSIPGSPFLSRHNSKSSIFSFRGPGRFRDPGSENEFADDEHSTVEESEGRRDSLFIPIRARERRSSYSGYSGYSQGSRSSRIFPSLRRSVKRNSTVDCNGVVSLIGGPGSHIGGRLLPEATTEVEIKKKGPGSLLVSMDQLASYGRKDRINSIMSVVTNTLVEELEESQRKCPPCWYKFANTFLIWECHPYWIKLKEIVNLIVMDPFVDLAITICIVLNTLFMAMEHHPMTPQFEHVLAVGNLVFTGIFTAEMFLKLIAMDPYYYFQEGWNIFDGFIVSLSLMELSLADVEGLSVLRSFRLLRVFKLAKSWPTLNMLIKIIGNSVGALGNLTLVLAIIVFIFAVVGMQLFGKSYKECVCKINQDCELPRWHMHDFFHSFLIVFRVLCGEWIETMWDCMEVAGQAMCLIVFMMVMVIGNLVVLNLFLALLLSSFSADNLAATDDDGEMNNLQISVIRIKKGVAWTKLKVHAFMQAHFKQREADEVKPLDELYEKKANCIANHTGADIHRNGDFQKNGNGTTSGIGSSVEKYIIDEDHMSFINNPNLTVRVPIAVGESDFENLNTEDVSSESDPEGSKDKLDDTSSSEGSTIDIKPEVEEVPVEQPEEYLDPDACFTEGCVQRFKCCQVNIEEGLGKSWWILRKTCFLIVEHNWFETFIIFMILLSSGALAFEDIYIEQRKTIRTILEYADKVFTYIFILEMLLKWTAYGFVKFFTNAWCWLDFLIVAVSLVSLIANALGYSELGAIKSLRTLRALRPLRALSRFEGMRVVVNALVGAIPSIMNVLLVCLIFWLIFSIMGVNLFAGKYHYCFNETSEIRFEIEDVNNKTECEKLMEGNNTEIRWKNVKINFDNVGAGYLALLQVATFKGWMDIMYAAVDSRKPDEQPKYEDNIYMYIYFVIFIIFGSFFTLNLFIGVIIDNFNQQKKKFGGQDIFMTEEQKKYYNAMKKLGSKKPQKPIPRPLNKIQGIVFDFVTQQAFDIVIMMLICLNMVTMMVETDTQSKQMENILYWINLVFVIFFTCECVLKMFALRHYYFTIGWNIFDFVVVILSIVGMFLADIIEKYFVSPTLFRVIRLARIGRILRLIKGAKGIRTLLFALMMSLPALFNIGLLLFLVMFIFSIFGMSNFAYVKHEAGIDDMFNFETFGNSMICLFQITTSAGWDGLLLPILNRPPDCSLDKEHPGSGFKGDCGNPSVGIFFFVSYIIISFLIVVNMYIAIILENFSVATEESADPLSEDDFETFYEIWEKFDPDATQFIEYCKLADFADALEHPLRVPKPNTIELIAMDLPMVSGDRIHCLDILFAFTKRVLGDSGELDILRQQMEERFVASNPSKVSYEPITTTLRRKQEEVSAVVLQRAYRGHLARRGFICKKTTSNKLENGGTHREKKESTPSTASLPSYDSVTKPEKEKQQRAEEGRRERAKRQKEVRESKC
Experimental: Ion Works Quattro electrophysiological platform
The compounds were prepared in DMSO at 300× the final assay concentrations of 1 and 5 μM.
The 300× DMSO stock solutions were transferred into assay plates where 2 μl per well of each 300× stock solution were placed. All assay plates were stored at −80° C. until the day of assay.
On the day of the assay, the appropriate assay plate was thawed at room temperature, centrifuged, and 198 μl of external recording solution was added and mixed thoroughly. This provided a 1:100 dilution. A further 1:3 dilution occurred upon addition to the cells in the IonWorks Quattro electrophysiological platform, giving a 1:300 dilution in total.
On each assay plate, at least 8 wells were reserved for vehicle control (0.3% DMSO) and at least 8 wells for each positive control specific to the cell line tested. The positive controls were tested at a maximal blocking and an approximate IC50 concentration. As positive control Lidocaine at concentrations of 30 and 1000 μM was used.
Amphotericin B was used to obtain electrical access to the cell interior at a final concentration of 200 μg/ml in internal recording solution.
State-dependent inhibition: Sodium channels when held at depolarized potential or long test pulse, the channels open and inactivate and then stay inactivated until the membrane potential is stepped back to hyperpolarized potentials, when the inactivated channels recover from inactivation into closed state.
Cells were held at −120 mV. In order to completely inactivate the sodium channels (pulse 1), the cells were pulsed to +0 mV for 2500 ms and stepped back to −120 mV for 10 ms (to completely recover from inactivation, however channels that had drugs bound to them will not recover from inactivation) before stepping to +0 mV for 20 ms (pulse 2).
Both the positive and vehicle control data associated with each cell line assayed are shown below as an example. The mean is shown for each positive and negative control as solid symbol with the total number of individual well replicates given next to the solid symbol. In addition, the individual data of each well are shown on the graph as open symbols so that the variation about the mean value can be readily assessed.
In FIG. 2, a Post/Pre value of 1.0 corresponds to 0% inhibition, a Post/Pre value of 0.0 corresponds to 100% inhibition.
Tables 3 and 4 show the normalized percentage inhibition of Nav1.6 channel. […] (see also the figure Assay Control Results above).

NMDA NR1/NR2B receptor [1] = target: NMDA NR1/NR2B receptor (Homo sapiens (Human), UniProt Q05586+Q13224); assay: NMDA NR1/NR2B FLIPR calcium assay in HEK293 cells; settings: glycine/glutamate-induced calcium, read-out: IC50, in vitro NR2B affinity in the FLIPR assay
NMDA NR1/NR2B receptor (Homo sapiens (Human), UniProt Q05586+Q13224), sequence (Q13224 27-1484, other chains not shown): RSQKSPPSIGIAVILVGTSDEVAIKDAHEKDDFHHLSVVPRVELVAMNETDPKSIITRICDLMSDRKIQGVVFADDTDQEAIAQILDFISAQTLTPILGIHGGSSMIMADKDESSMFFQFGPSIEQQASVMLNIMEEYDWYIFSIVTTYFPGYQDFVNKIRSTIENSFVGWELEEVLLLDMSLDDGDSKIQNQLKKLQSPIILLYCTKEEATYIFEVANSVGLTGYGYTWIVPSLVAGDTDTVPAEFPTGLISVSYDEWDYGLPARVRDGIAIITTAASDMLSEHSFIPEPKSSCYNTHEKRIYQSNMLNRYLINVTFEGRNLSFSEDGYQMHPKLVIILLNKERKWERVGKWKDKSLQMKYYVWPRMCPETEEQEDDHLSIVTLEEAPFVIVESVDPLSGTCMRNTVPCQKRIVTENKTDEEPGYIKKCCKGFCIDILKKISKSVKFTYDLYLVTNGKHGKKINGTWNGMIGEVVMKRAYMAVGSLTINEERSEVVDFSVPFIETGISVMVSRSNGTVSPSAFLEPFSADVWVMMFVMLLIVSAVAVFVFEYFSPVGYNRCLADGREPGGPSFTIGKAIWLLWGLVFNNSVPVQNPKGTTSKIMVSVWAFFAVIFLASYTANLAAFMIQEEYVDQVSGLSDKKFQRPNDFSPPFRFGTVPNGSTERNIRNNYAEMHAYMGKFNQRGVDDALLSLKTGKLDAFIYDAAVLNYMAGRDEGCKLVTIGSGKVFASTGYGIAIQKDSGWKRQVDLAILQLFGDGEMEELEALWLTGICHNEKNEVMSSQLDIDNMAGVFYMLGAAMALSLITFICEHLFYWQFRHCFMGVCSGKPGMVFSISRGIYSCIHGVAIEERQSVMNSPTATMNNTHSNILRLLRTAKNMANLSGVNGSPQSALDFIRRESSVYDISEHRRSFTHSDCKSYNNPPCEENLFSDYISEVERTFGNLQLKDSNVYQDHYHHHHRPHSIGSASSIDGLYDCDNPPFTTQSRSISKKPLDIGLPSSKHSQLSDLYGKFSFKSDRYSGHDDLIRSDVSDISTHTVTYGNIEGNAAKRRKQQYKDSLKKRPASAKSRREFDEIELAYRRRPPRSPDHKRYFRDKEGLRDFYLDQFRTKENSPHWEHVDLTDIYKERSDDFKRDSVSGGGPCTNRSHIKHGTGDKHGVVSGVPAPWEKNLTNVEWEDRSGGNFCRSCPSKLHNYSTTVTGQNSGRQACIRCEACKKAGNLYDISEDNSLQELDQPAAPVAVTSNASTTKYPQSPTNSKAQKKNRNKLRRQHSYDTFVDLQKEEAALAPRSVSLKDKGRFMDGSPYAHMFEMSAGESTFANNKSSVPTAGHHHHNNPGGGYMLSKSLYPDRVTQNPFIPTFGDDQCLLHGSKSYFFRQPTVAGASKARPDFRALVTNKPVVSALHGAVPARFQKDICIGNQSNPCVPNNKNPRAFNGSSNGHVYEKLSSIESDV
Experimental: (§1) A human HEK293 cell line with tetracyclin-inducible expression of NMDA NR1/NR2B receptor was used as a test system for compound efficacy and potency. The cell line was purchased from ChanTest, Catalog #CT6121. Compound activity was determined by measuring the effect of compounds on intracellular calcium concentration induced by glycine/glutamate agonism in a FLIPRtetra system (Molecular Devices).
(§2) The cells were obtained as frozen cells in cryo-vials and stored until use at −150° C. Cells were grown in culture medium (DMEM/F12, 10% FBS, 5 μg/mL Blasticidin, 150 μg/mL Zeozin, 500 μg/mL Geneticin). […] For sub-culturing the cells were detached from flasks by Versene. For the assay, cells were detached, washed twice with induction medium (DMEM/F12 without glutamine, 10% FBS, 2 μg/mL Tetracycline, 2 mM Ketamine) and seeded to 384 well pure coat amine plates (Becton Dickinson, 50000 cells per well in 50 μl) 48 h prior to assay in induction medium.
(§3) The test compounds were dissolved in 100% DMSO at a concentration of 10 mM and in a first step diluted in DMSO to a concentration of 5 mM, followed by serial dilution steps in 100% DMSO. Dilution factor and number of dilution steps may vary according to needs. Typically 8 different concentrations by 1:5 dilutions were prepared in duplicate, further intermediate dilutions (1:37.5) of the substances were carried out with aqueous assay buffer (137 mM NaCl, 4 mM KCl, 1.8 mM CaCl2), 10 mM HEPES, 10 mM Glucose, pH 7.4) resulting in a compound concentration 3 times above the final test concentration and DMSO at 2.7% resulting in 0.9% final DMSO concentration in the assay.
(§4) At the assay day cells were washed 3× with assay buffer (as described above), 10 μL buffer remained in the wells after washing. 10 μL Ca kit loading buffer (AAT Bioquest; prepared from the kit containing the following components: Component A: Fluo-8 NW dissolved in 200 μL DMSO and 20 μl of this solution are mixed with 10 ml buffer prepared out of component B and C, Component B: 10× Pluronic® F127 Plus diluted 1:10 in component C, Component C: HHBS (Hanks with 20 mM Hepes) was added to the cells and the plates were incubated with lid for 60 minutes at room temperature. 20 μl assay buffer containing 60 μM glycine (20 μM final) and 3 μM glutamate (1 μM final) was added to column 1-23, column 24 got assay buffer without glycine/glutamate to serve as negative unstimulated control. Fluorescence (indicating the calcium influx as a result of the NR1/NR2B ion channel activation) was read on the FLIPRtetra device for 60 seconds to monitor the glutamate induced effects. After 2 minutes 20 μL of compound dilution prepared as described above or controls (row 1-22) in assay buffer were carefully added to the wells. […] The average of 2 measurements at 5 minutes and 5 min 10 seconds after compound addition is calculated and further used for IC50 calculations. Each assay microtiter compound dilution plate contained wells (in column 23 or 24) with DMSO controls instead of compound as controls for glycine/glutamate induced fluorescence (high controls) and wells with 1 μM of a reference NR2B NAM as low controls (Compound 22; reference: Layton, Mark E et al, ACS Chemical Neuroscience 2011, 2(7), 352-362).
(§5) The output file of the reader contains the well number and measured average fluorescence units. For data evaluation and calculation, the measurement of the low control was set as 0% control and the measurement of the high control was set as 100% control. The IC50 values were calculated using the standard 4 parameter logistic regression formula. Calculation: [y=(a−d)/(1+(x/c)^b)+d], a=low value, d=high value; x=conc M; c=IC50 M; b=slope.

NMDA NR1/NR2B receptor [2] = target: NMDA NR1/NR2B receptor (Homo sapiens (Human), UniProt Q13224); assay: NMDA NR1/NR2B FLIPR calcium assay in HEK293 cells; settings: glycine/glutamate-induced calcium, read-out: IC50, in vitro NR2B affinity in the FLIPR assay
NMDA NR1/NR2B receptor (Homo sapiens (Human), UniProt Q13224), sequence (Q13224 27-1484, other chains not shown): as above
Experimental: as §1, §2, §3, §4, §5

For `CCN(CC)CC(=O)Nc1c(C)cccc1C` [Lidocaine, reference compound], the “inhibition of evoked Nav1.6 currents (in words)” value (Nav1.6 channel; assay control, 30 and 1000 μM) was “inhibited evoked currents in a concentration and use dependent manner” and the inhibition at 1000 µM (Nav1.6 channel; read-out: maximum inhibition at P1 (not normalized)) was 46.4 to 47.2%.
`O=C(C1CN(Cc2cccc(Oc3ccccc3)c2)CCO1)N1CCOCC1` (stereo not drawn) [Example 106, reference compound] was tested, and the inhibition at 1 µM (Nav1.6 channel) was -0.7%, the “Normalized % inhibition at 5 μM” value (Nav1.6 channel) was 14% and the inhibition at 5 µM (Nav1.6 channel) was 14%. For the same compound, the IC50 (NMDA NR1/NR2B receptor [1]) was over 9.26 µM.
For `CNC(=O)[C@@H]1CN(Cc2cnc(Oc3c(F)cccc3F)nc2)CCO1` [Example 34], the IC50 (NMDA NR1/NR2B receptor [2]) was 0.362 µM.
With `O=C(NCc1ccccn1)C1CN(Cc2cccc(Oc3ccccc3)c2)CCO1` (stereo not drawn) [Example 105, reference compound] the inhibition at 1 µM (Nav1.6 channel) was 18.2%, the “Normalized % inhibition at 5 μM” value (Nav1.6 channel) was 68% and the inhibition at 5 µM (Nav1.6 channel) was 68%. For the same compound, the IC50 (NMDA NR1/NR2B receptor [1]) was over 9.26 µM.
In the case of `CCCCNc1ccc(C(=O)OCCN(C)C)cc1` [Tetracaine, reference compound], the “state-dependent inhibition of Nav1.6 (in words)” value (Nav1.6 channel; depolarized vs hyperpolarized potential) is reported as “much stronger at depolarized potentials than at hyperpolarized potential”.
`CNC(=O)[C@@H]1CN(Cc2cnc(Oc3ccccc3)nc2)CCO1` [Example 33] gave an IC50 (NMDA NR1/NR2B receptor [2]) of 0.509 µM.
In the case of `CCNC(=O)C1CN(Cc2cccc(Oc3ccccc3)c2)CCO1` (stereo not drawn) [Example 100, reference compound], the inhibition at 1 µM (Nav1.6 channel) is reported as 2.2%, the “Normalized % inhibition at 5 μM” value (Nav1.6 channel) is reported as 37.8% and the inhibition at 5 µM (Nav1.6 channel) is reported as 37.8%. The IC50 (NMDA NR1/NR2B receptor [1]) was over 8.89 µM.
`CNC(=O)[C@@H]1CN(Cc2cnc(Oc3c(C)cccc3F)nc2)CCO1` [Example 35] was tested, and the IC50 (NMDA NR1/NR2B receptor [2]) was 0.933 µM.
